The results in this text go back to patent US10233144B2, “Crystalline form of AHU377, preparation method and use thereof” (CRYSTAL PHARMATECH CO., LTD., priority 2015, dated 2019).

The data set is described as follows: Hygroscopicity assessment by dynamic vapor sorption (DVS). Type of data set: physicochemical. Conditions: 25° C.; for weight gain under 80% RH: DVS, 10 mg sample. The method, then:
Dynamic Vapor Sorption (DVS) was measured via a SMS (Surface Measurement Systems) DVS Intrinsic. Typical Parameters for DVS test are listed below. Temperature: 25° C. Gas and flow rate: N2, 200 mL/min dm/dt: 0.002%/min RH range: 0% RH to 95% RH 10 mg of crystalline Form I of the present disclosure was tested using dynamic vapor sorption (DVS). 4. The DVS isotherm plot of crystalline Form I is depicted in FIG. 4. About hygroscopicity characterization description and definition of hygroscopicity (Chinese Pharmacopoeia 2010 edition appendix XIX J Drug hygroscopic test guidelines, test at 25° C.±1° C., 80% Relative Humidity) • deliquescent: sufficient water is absorbed to form a liquid; • very hygroscopic: increase in mass is equal to or greater than 15 percent; • hygroscopic: increase in mass is less than 15 percent and equal to or greater than 2 percent; • slightly hygroscopic: increase in mass is less than 2 percent and equal to or greater than 0.2 percent. • no or almost no hygroscopic: increase in mass is less than 0.2 percent

The structures appear in SMILES notation.

Take `CCOC(=O)[C@H](C)C[C@@H](Cc1ccc(-c2ccccc2)cc1)NC(=O)CCC(=O)O` [Crystalline Form I of AHU377, (2R,4S)-5-(Biphenyl-4-yl)-4-[(3-carboxypropionyl)amino]-2-methylpentanoic acid ethyl ester]: the “weight gain under 80% RH” value was determined as 0.35%. The “hygroscopicity (class according to hygroscopic test guidelines)” value (Chinese Pharmacopoeia 2010 appendix XIX J, 80% Relative Humidity) is “slightly hygroscopic (increase in mass is less than 2 percent and equal to or greater than 0.2 percent)”. The “weight gain under 80% RH” value (listed as crystalline Form I) stood at 0.35%.
